Tests used:
Type in all cases: biochemical
[1] = biological target: T1, h12-LOX (Homo sapiens, UniProt P18054); experiment: IC50 determination against h12-LOX; conditions: methyl esters; 10 μM AA, pH 8.00; read-out: IC50 h12-LOX (methyl ester unsaturated fatty acids)
T1 construct: His tag; made in house
T1 sequence (P18054 1-663): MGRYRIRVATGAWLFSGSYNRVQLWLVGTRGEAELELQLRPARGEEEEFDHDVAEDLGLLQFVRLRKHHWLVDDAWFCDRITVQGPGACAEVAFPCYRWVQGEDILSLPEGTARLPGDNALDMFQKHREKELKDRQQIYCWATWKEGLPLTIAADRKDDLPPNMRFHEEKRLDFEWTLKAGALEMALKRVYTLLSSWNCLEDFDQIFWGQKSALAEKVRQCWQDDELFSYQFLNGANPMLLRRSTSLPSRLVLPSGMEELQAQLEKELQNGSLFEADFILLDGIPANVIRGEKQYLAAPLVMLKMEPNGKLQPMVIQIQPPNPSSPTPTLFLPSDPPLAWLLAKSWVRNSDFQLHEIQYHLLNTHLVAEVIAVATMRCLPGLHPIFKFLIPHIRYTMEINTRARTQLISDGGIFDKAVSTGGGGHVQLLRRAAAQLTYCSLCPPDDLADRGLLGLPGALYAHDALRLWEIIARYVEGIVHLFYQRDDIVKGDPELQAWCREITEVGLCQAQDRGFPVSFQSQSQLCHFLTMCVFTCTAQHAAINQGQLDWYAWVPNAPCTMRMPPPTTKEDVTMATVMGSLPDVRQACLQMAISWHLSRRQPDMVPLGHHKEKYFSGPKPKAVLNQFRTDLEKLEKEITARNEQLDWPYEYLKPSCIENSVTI
Method: (§1) Overexpression and purification of his-tagged wild-type h12-LOX (Uniprot entry P18054), h15-LOX-1 (Uniprot entry P16050), and h15-LOX-2 (Uniprot entry O15296) were performed using nickel-affinity chromatography. The purity of h12-LOX, h15-LOX-1, and h15-LOX-2 was assessed using SDS gel as greater than 85%, and metal content was assessed with a Finnigan inductively coupled plasma mass spectrometer (ICP-MS, Thermo Fischer Scientific, San Jose, USA) via comparison with iron standard solution. Cobalt-EDTA was used as an internal standard. WT h5-LOX (UniProt entry P09917) was expressed in Rosetta 2 cells (Novagen) transformed with the pET14b-Stable-5-LOX plasmid (a gift from Marcia Newcomer of Louisiana State University) and grown in Terrific Broth containing 34 μg/mL chloramphenicol and 100 μg/mL ampicillin at 37 °C for 3.5 h, then placed at 20 °C for an additional 26 h. Cells were pelleted and resuspended in 50 mM Tris (pH 8.0), 500 mM NaCl, 20 mM imidazole with 1 μM pepstatin, 100 μM PMSF, and DNaseI (Sigma, Kanagawa, Japan). The cells were lysed in a French pressure cell and centrifuged at 40,000× g for 20 min at 4 °C. Saturated ammonium sulfate was added to achieve a final solution of 10% and inverted several times. The lysate was centrifuged at 40,000× g for 10 min at 4 °C. The pellet was discarded, and the supernatant was increased to a final concentration of 50% ammonium sulfate. The supernatant was rotated for 10 min at 4 °C then centrifuged at 40,000× g for 10 min at 4 °C. The pellet was split into 150 mg aliquots. The WT h5-LOX used for the kinetics in this work was not purified due to a dramatic loss in activity and was therefore prepared as an ammonium-sulfate precipitate.
IC50 values for each acyl-CoA were measured against h5-LOX, h12-LOX, h15-LOX-1, and h15-LOX-2. […] The fastest rates over 15 s intervals were recorded. […]

[2] = biological target: T2, h15-LOX-1 (Homo sapiens, UniProt P16050); experiment: IC50 determination against h15-LOX-1; conditions: 10 μM AA, 25 mM HEPES pH 7.5, 0.01% Triton X-100, 22 °C
T2 construct: His tag; made in house
T2 sequence (P16050 1-662): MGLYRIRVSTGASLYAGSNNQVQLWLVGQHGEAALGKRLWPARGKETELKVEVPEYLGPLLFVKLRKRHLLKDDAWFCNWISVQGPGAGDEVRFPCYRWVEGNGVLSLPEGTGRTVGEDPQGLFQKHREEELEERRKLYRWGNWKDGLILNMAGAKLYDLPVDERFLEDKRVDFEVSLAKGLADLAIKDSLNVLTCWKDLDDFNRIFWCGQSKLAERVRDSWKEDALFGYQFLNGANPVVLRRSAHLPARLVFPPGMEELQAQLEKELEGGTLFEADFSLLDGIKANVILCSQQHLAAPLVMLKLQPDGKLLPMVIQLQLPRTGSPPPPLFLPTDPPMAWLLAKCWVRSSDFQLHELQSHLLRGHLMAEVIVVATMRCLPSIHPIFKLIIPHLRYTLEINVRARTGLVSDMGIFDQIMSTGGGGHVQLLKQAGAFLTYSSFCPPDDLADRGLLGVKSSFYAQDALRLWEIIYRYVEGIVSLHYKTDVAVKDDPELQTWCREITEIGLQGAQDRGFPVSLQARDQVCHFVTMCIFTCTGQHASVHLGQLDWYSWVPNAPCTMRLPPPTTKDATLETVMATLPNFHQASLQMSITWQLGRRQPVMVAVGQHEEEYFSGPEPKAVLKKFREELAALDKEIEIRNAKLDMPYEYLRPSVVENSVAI
Method: as §1
(§2) IC50 values for each acyl-CoA were measured against h5-LOX, h12-LOX, h15-LOX-1, and h15-LOX-2. The reactions were carried out in 25 mM HEPES buffer (pH 8.00), 0.01% Triton X-100, and 10 μM AA for h12-LOX; 25 mM HEPES buffer (pH 7.5), 0.01% Triton X-100, and 10 μM AA for h15-LOX-1 and h15-LOX-2; and 50 mM HEPES buffer (pH 7.5), 100 µM EDTA, 50 mM NaCl, 200 µM ATP, and 10 μM AA for h5-LOX. IC50 reactions were implemented with h15-LOX-1 (0.125 μM), h12-LOX (0.300 μM), h15-LOX-2 (0.5 μM), and h5-LOX (∼600 nM ammonium sulfate salt) at 22 °C in a 1 cm^2 quartz cuvette containing 2 mL of the according buffer and 10 μM AA for no longer than 2 min to avoid any cleavage of the acyl-coenzyme A. Inhibitor concentrations ranging from 50 μM to 0.01 μM were used. All reactions were conducted using a Cary-UV Vis spectrophotometer (Agilent, Santa Clara, CA, USA). The fastest rates over 15 s intervals were recorded. IC50 values were obtained by determining the percent of inhibition of the enzymatic rate at ten inhibitor concentrations and plotting the rate against the inhibitor concentration, followed by a hyperbolic saturation curve fit. The saturation curve fits were performed in duplicate or triplicate, depending on the quality of the data. […] Through HPLC monitoring, we were able to determine a lack of degradation of the fatty acyl-CoAs over the first hour.

[3] = biological target: T3, h15-LOX-2 (Homo sapiens, UniProt O15296); experiment: IC50 determination against h15-LOX-2; conditions: 10 μM AA, 25 mM HEPES pH 7.5, 0.01% Triton X-100, 22 °C
T3 construct: His tag; made in house
T3 sequence (O15296 1-676): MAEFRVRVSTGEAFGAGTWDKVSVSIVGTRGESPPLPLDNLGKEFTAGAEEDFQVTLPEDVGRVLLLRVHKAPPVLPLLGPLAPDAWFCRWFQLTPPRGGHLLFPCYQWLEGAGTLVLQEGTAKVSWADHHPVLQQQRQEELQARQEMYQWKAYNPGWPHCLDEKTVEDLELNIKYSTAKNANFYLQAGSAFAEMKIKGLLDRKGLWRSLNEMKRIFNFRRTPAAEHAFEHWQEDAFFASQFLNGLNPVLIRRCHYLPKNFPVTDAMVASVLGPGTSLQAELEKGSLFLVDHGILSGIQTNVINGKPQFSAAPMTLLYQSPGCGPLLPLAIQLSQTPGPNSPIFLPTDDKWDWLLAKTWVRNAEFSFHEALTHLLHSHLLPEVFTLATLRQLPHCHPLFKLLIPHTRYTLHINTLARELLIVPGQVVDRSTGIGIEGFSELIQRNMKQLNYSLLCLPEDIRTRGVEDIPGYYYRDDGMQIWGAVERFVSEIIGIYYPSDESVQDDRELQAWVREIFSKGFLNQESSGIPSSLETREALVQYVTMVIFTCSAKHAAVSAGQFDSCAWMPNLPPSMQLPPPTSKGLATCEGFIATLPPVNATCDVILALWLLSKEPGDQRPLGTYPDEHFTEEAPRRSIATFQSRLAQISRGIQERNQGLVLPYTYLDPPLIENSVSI
Method: as §1, §2

[4] = biological target: T2, h15-LOX-1; experiment: Substrate activity and kinetic parameters with h15-LOX-1; conditions: acyl-CoAs tested at 70 µM; change in absorbance at 234 nm
Method: Considering that some of these acyl-CoAs could potentially be substrates for LOX isozymes, each acyl-CoA was tested at 70 µM against each LOX isozyme to establish the possibility of catalysis.
The same buffer as used to determine IC50 values for h5-LOX was used for product determination. Turnover was monitored by absorbance at 234 nm.

Row | Structure (SMILES) | IC50 [1] [µM] | IC50 [2] [µM] | IC50 [3] [µM] | Substrate activity with h15-LOX-1 [4]
1 | CC/C=C\C/C=C\C/C=C\CCCCCCCCCCCC(=O)OC [methyl 13(Z),16(Z),19(Z)-docosatrienoate, methyl-13(Z),16(Z),19(Z)-docosatrienoate (22:3)] | > 200 | > 200 | > 200 | 
2 | CC/C=C\C/C=C\C/C=C\CC/C=C\CCCCCCCC(=O)OC [methyl docosatetraenoate, methyl-9(Z),13(Z),16(Z),19(Z)-docosatetraenoate (22:4)] | > 200 | > 200 | > 200 | 
3 | CCCCC/C=C\C/C=C\C/C=C\C/C=C\CCCC(=O)OC [methyl ester arachidonic acid] |  |  |  | substrates
4 | CCCCC/C=C\C/C=C\CCCCCCCCCCCC(=O)OC [methyl-13Z,16Z-docosadienoic, methyl-13Z,16Z-docosadienoic (22:2)] | > 200 | > 200 | > 200 | 

Source: paper PMC10341549, “Inhibitory Investigations of Acyl-CoA Derivatives against Human Lipoxygenase Isozymes” (International Journal of Molecular Sciences, 2023)
